Reference: PMC6399351, “Cationic Intrinsically Disordered Antimicrobial Peptides (CIDAMPs) Represent a New Paradigm of Innate Defense with a Potential for Novel Anti-Infectives” (Scientific Reports, 2019)
Values after ≈ are worked out from the molar mass of the structure shown. Where two headings read alike, the source gives them in different places. Peptide text beside a SMILES is read from it. * marks the point of attachment. Palmitoyl = CCCCCCCCCCCCCCCC(=O)*

Columns and labels:
[1] = system: Streptococcus pneumoniae ATCC 33400; assay: CFU assay of antimicrobial activity; assay type: cell-based; conditions: 10 mM NaP, pH 7.3, 1% TSB
Protocol: (§1) All purified peptides and recombinant proteins were applied using a colony forming unit (CFU) assay in different media. Bacteria were grown to early log-phase in BHI, washed either with 10 mM Na-P, pH 7.4/1% TSB or pH 5.5/1% TSB, or pH 5.5 without TSB or BHI, and adjusted to a concentration of 10^4–10^5 colony forming units (CFU)/ml. For cell number control, 100 µl aliquots were diluted 1:10, 1:100 and 1:1000 and plated in duplicates on BHI agar plates. To 100 µl aliquots of the bacteria, suspended in the respective medium (10 mM Na-P buffer pH 7,0–7,4/ 1% (w/v) TSB; […]; 10 mM Na-P buffer pH 7,0–7,4/ 1% (w/v) TSB pH 7,0–7,4/ 0,25% (w/v) glucose; 10 mM Na-P buffer pH 5,5/ 0,25% (w/v) glucose, respectively), 10 µl of a solution of the peptide or protein (two-fold dilutions, from 300 µg/ml or 150 µg/ml down to 19 ng/ml), dissolved in 0.01% (v/v) acetic acid, were added.
(§2) Then bacteria were incubated for 2 h at ambient temperature, if not otherwise stated. 10 µl of 0.01% (v/v) acetic acid, added to 100 µl aliquots of the bacteria in the respective medium, served as negative control. From each test, 1:10 and 1:100 dilutions were generated and plated as duplicates of 100 µl aliquots on BHI agar plates. After 16 h incubation at 37 °C, CFU were counted using a colony counter (Bio Kobe, Japan) and expressed as mean of the duplicate estimation to achieve a complete dose-response curve. All experiments were performed at serial dilutions in a concentration range of 100 µg/mL −25 ng/mL for recombinant HRNR fragments and 300 or 150 µg/mL–19 ng/mL for synthetic peptides.

[2] = system: Streptococcus pyogenes ATCC 12344; assay: CFU assay of antimicrobial activity; assay type: cell-based; conditions: 10 mM NaP, pH 7.3, 1% TSB
Protocol: as §1, §2

[3] = system: Peptostreptococcus magnus ATCC 15794; assay: CFU assay of antimicrobial activity; assay type: cell-based, Peptostreptococcus magnus (now Finegoldia magna); conditions: 10 mM NaP, pH 7.3, 1% TSB
Protocol: All purified peptides and recombinant proteins were applied using a colony forming unit (CFU) assay in different media. Bacteria were grown to early log-phase in BHI, washed either with 10 mM Na-P, pH 7.4/1% TSB or pH 5.5/1% TSB, or pH 5.5 without TSB or BHI, and adjusted to a concentration of 10^4–10^5 colony forming units (CFU)/ml. For cell number control, 100 µl aliquots were diluted 1:10, 1:100 and 1:1000 and plated in duplicates on BHI agar plates. To 100 µl aliquots of the bacteria, suspended in the respective medium (10 mM Na-P buffer pH 7,0–7,4/ 1% (w/v) TSB; 10 mM Na-P buffer pH 5,5/ 1% (w/v) TSB; 10 mM Na-P buffer pH 7,0–7,4/ 1% (w/v) TSB pH 7,0–7,4/ 0,25% (w/v) glucose; 10 mM Na-P buffer pH 5,5/ 0,25% (w/v) glucose, respectively), 10 µl of a solution of the peptide or protein (two-fold dilutions, from 300 µg/ml or 150 µg/ml down to 19 ng/ml), dissolved in 0.01% (v/v) acetic acid, were added.
Then bacteria were incubated for 2 h at ambient temperature, if not otherwise stated. 10 µl of 0.01% (v/v) acetic acid, added to 100 µl aliquots of the bacteria in the respective medium, served as negative control. […] After 16 h incubation at 37 °C, CFU were counted using a colony counter (Bio Kobe, Japan) and expressed as mean of the duplicate estimation to achieve a complete dose-response curve. […]

[4] = system: Acinetobacter baumannii ATCC 19606; assay: CO-ADD MIC, broth microdilution (CLSI); assay type: cell-based; conditions: Mueller–Hinton broth, 5 × 10^5 CFU/mL, 18 h 37 °C, by CO-ADD
Text: (§3) They were defined as the lowest peptide
(§4) Further details of the screening

[5] = system: Pseudomonas aeruginosa ATCC 27853; assay: CO-ADD MIC, broth microdilution (CLSI); assay type: cell-based; conditions: Mueller–Hinton broth, 5 × 10^5 CFU/mL, 18 h 37 °C, by CO-ADD
Text: as §3, §4

E. coli ATCC 25922 = assay: CO-ADD MIC, broth microdilution (CLSI); assay type: cell-based, Escherichia coli; conditions: Mueller–Hinton broth, 5 × 10^5 CFU/mL, 18 h 37 °C, by CO-ADD
Text: as §3, §4

[6] = system: Moraxella osloensis RV A2/2001; conditions: CFU assay, 10 mM NaP, pH 7.3, 1% TSB
[7] = system: Clostridium perfringens ATCC 13124; conditions: CFU assay, 10 mM NaP

Compound: CCCCCCCCCCCCCCCC(=O)NCC(=O)N[C@@H](CCCNC(=N)N)C(=O)N[C@@H](CCCNC(=N)N)C(=O)NCC(=O)NCC(=O)N[C@@H](CCCNC(=N)N)C(=O)NCC(=O)NCC(=O)N[C@@H](CCCNC(=N)N)C(=O)NCC(=O)N[C@@H](CCCNC(=N)N)C(=O)NCC(=O)N[C@@H](CCCNC(=N)N)C(=O)O [Pal-GR13] (Palmitoyl-GRRGGRGGRGRGR-OH)
- LD90 [1]: 2.35 µg/mL
- LD90 [2]: 0.15 µg/mL
- LD90 [3]: 4.7 µg/mL
- Minimal inhibitory concentration (MIC) [4]: 2 µg/mL (≈ 1.26 µM)
- Minimal inhibitory concentration (MIC) [5]: 8 µg/mL (≈ 5.02 µM)
- Minimal inhibitory concentration (MIC) (E. coli ATCC 25922): 4 µg/mL (≈ 2.51 µM)
- LD90 [6]: 0.59 µg/mL
- LD90 ([7]; pH 5.5, 0.25% glucose): 37.5 µg/mL
- LD90 ([7]; pH 7.3, 0.25% glucose): 4.7 µg/mL
- LD90 ([7]; pH 7.3, 1% TSB): 18.75 µg/mL
